Source: US11576381B2, “Composition and a method of using the composition to increase wheat yield” (priority 2019, dated 2023)
Values joined by “and” are separate entries in the source; they are usually repeats but may differ in a detail not shown here. Equal values may be shown once.

Experiments:
grasses = test: Grass control in QPE-tolerant wheat treated with herbicides; type: in vivo
Procedure: (§1) Yield of QPE-tolerant wheat in bushels per acre was measured under the following conditions: where no QPE was applied, where QPE was applied alone, where one or more broadleaf herbicides were applied, and where a combination of a QPE source and a broadleaf herbicide were applied together. For each test condition, the level of both grass control and broadleaf control was recorded. Finally, the application rate of each active substance was recorded. One QPE source is Aggressor™ which comprises Quizalofop-P-ethyl 10.3%.

broadleaf weeds = test: Broadleaf weed control in QPE-tolerant wheat treated with herbicides; type: in vivo
Procedure: as §1

QPE-tolerant wheat = test: Yield of QPE-tolerant wheat in bushels per acre; type: in vivo
Procedure: as §1

[1] = soil; cited from earlier work
[2] = Treatment B Rate/Acre 1.00 lb ai/acre
[3] = Treatment B Rate/Acre .50 lb ai/acre
[4] = Treatment B Rate/Acre 3 fl oz/acre
[5] = Treatment B Rate/Acre 4 fl oz/acre
[6] = Treatment B Rate/Acre 5 fl oz/acre
[7] = Treatment B Rate/Acre 2 oz/acre
[8] = Treatment B Rate/Acre 4.75/acre
[9] = Treatment B Rate/Acre .90 oz/acre
[10] = Treatment B Rate/Acre .60 oz/acre
[11] = Treatment B Rate/Acre .66 oz/acre
[12] = Treatment B Rate/Acre .30 oz/acre

Compound: CNC.O=C(O)COc1ccc(Cl)cc1Cl [2,4-D Amine]
- Grass Control (grasses; [2]): 0%
- Grass Control (grasses; [3]): 0%
- Broadleaf Weed Control (broadleaf weeds; [2]): 90%
- Broadleaf Weed Control (broadleaf weeds; [3]): 75%
- Yield (QPE-tolerant wheat; [2]): 56.8 Bu/acre
- Yield (QPE-tolerant wheat; [3]): 55.7 Bu/acre

Compound: COc1c(Cl)ccc(Cl)c1C(=O)O [Dicamba]
- Grass Control (grasses; [4]): 0%
- Grass Control (grasses; [5]): 0%
- Grass Control (grasses; [6]): 0%
- Broadleaf Weed Control (broadleaf weeds; [4]): 90%
- Broadleaf Weed Control (broadleaf weeds; [5]): 93%
- Broadleaf Weed Control (broadleaf weeds; [6]): 96%
- Yield (QPE-tolerant wheat; [4]): 56.7 Bu/acre
- Yield (QPE-tolerant wheat; [5]): 57.9 Bu/acre
- Yield (QPE-tolerant wheat; [6]): 58.4 Bu/acre

Compound: COc1nn(C(=O)NS(=O)(=O)c2ccccc2OC(F)(F)F)c(=O)n1C [Flucarbazone]
- Grass Control (grasses; [7]): 65%
- Broadleaf Weed Control (broadleaf weeds; [7]): 55%
- Yield (QPE-tolerant wheat; [7]): 67.3 Bu/acre

Compound: CNC.Cc1cc(Cl)ccc1OCC(=O)O [MCPA Amine]
- Grass Control (grasses; [2]): 0%
- Grass Control (grasses; [3]): 0%
- Broadleaf Weed Control (broadleaf weeds; [2]): 93%
- Broadleaf Weed Control (broadleaf weeds; [3]): 78%
- Yield (QPE-tolerant wheat; [2]): 56.9 Bu/acre
- Yield (QPE-tolerant wheat; [3]): 52.4 Bu/acre

Compound: COc1cc(OC)nc(NC(=O)NS(=O)(=O)c2cc(CNS(C)(=O)=O)ccc2C(=O)O)n1 [Mesosulfuron]
- Grass Control (grasses; [8]): 35%
- Broadleaf Weed Control (broadleaf weeds; [8]): 50%
- Yield (QPE-tolerant wheat; [8]): 60.4 Bu/acre

Compound: CCCOc1nn(C(=O)[N-]S(=O)(=O)c2ccccc2C(=O)OC)c(=O)n1C.[Na+] [Propoxycarbazone]
- Grass Control (grasses; [9]): 45%
- Broadleaf Weed Control (broadleaf weeds; [9]): 65%
- Yield (QPE-tolerant wheat; [9]): 63.2 Bu/acre

Compound: COc1nc(C)nc(NC(=O)NS(=O)(=O)c2ccccc2CCC(F)(F)F)n1 [Prosulfuron]
- Grass Control (grasses; [10]): 0%
- Broadleaf Weed Control (broadleaf weeds; [10]): 85%
- Yield (QPE-tolerant wheat; [10]): 59.2 Bu/acre

Compound: COc1cc(OC)n2nc(NS(=O)(=O)c3c(C(F)(F)F)ccnc3OC)nc2n1 [Pyroxsulam]
- Grass Control (grasses; [7]): 70%
- Broadleaf Weed Control (broadleaf weeds; [7]): 30%
- Yield (QPE-tolerant wheat; [7]): 60.3 Bu/acre

Compound: CCOC(=O)[C@@H](C)Oc1ccc(Oc2cnc3cc(Cl)ccc3n2)cc1 [Quizalofop-p-ethyl]
- Koc [1]: 510 and 570

Compound: CCS(=O)(=O)c1nc2ccccn2c1S(=O)(=O)NC(=O)Nc1nc(OC)cc(OC)n1 [Sulfosulfuron]
- Grass Control (grasses; [11]): 55%
- Broadleaf Weed Control (broadleaf weeds; [11]): 60%

Compound: COc1nc(C)nc(N(C)C(=O)NS(=O)(=O)c2ccccc2C(=O)O)n1 [Tribenuron]
- Grass Control (grasses; [12]): 0%
- Broadleaf Weed Control (broadleaf weeds; [12]): 93%
- Yield (QPE-tolerant wheat; [12]): 58.4 Bu/acre
